Assay [1] deals with Sodium-dependent dopamine transporter (Homo sapiens, UniProt Q01959). The assay is described as follows: Inhibition of [3H]dopamine uptake at human DAT expressed in HEK293 cells. Format: cell-based.
Assay [2] deals with Sodium-dependent noradrenaline transporter (Homo sapiens, UniProt P23975). The assay can be described thus: Inhibition of [3H]norepinephrine uptake at human NET expressed in HEK293 cells. Format: cell-based.
Assay [3] concerns the target Sodium-dependent serotonin transporter (Homo sapiens, UniProt P31645). The assay is described as follows: Inhibition of [3H]serotonin uptake at human SERT expressed in HEK293 cells. Format: cell-based.
For assay [4], the target named is Neuronal acetylcholine receptor; alpha3/beta4 (Homo sapiens) (UniProt P30926+P32297). The assay can be described thus: Intrinsic activity at alpha3beta4 nAChR receptor in human SH-SY5Y cells assessed as 86Rb+ efflux at 5 to 100 uM by liquid scintillation counting. In kind it is cell-based.
Assay [5] has as its target Neuronal acetylcholine receptor; alpha4/beta2 (Homo sapiens) (UniProt P17787+P43681). The assay is described as follows: Intrinsic activity at human alpha4beta2 nAChR receptor expressed in human SH-SY5Y cells assessed as 86Rb+ efflux at 5 to 100 uM by liquid scintillation counting. Format: cell-based.
Assay [6] has as its target Neuronal acetylcholine receptor; alpha4/beta4 (Homo sapiens) (UniProt P30926+P43681). The assay is described as follows: Intrinsic activity at human alpha4beta4 nAChR receptor expressed in human SH-SY5Y cells assessed as 86Rb+ efflux at 5 to 100 uM by liquid scintillation counting. Format: cell-based.
The target in assay [7] is Acetylcholine receptor; alpha1/beta1/delta/gamma (Homo sapiens) (UniProt P02708+P07510+P11230+Q07001). The assay can be described thus: Intrinsic activity at alpha-1-beta-1-gamma-delta nAChR receptor expressed in human TE671/RD cells assessed as 86Rb+ efflux at 5 to 100 uM by liquid scintillation counting. Format: cell-based.
For assay [8], the species on record is Mus musculus. The assay can be described thus: Antinociceptive activity in ICR mouse D'Amour and Smith model of pain assessed as inhibition of nicotine-induced response by tail-flick test. Format: functional.
For assay [9], the species on record is Mus musculus. The assay is described as follows: Antinociceptive activity in ICR mouse assessed as inhibition of nicotine-induced response by hotplate test. Format: functional.
The species entered for assay [10] is Mus musculus. The assay is described as follows: Effect on behavioral activity in ICR mouse assessed as inhibition of nicotine-induced locomotory response by locomotor assay. Format: functional.
The species entered for assay [11] is Mus musculus. The assay can be described thus: Effect on body temperature in ICR mouse assessed as inhibition of nicotine-induced hypothermic response. Format: functional.

Active and inactive are the calls of the source. The rule behind the calls is not given here.

Chain of Sodium-dependent serotonin transporter (P31645 whole entry): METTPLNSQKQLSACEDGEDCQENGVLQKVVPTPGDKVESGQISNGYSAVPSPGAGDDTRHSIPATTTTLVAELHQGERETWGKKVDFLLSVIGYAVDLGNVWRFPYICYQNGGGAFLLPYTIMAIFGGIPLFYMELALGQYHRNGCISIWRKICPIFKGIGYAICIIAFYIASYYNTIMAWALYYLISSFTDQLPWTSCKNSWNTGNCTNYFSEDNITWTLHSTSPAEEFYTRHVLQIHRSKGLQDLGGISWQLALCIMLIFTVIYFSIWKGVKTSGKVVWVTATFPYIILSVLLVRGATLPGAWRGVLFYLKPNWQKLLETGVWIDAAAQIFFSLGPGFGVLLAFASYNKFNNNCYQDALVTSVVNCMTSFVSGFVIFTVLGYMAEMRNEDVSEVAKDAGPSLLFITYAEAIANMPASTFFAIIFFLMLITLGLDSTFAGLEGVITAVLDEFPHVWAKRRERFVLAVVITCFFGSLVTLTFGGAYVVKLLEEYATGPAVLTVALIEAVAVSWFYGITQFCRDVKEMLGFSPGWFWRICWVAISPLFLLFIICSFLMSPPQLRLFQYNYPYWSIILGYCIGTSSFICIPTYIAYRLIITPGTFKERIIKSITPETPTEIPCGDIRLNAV
Chain of Sodium-dependent dopamine transporter (Q01959 whole entry): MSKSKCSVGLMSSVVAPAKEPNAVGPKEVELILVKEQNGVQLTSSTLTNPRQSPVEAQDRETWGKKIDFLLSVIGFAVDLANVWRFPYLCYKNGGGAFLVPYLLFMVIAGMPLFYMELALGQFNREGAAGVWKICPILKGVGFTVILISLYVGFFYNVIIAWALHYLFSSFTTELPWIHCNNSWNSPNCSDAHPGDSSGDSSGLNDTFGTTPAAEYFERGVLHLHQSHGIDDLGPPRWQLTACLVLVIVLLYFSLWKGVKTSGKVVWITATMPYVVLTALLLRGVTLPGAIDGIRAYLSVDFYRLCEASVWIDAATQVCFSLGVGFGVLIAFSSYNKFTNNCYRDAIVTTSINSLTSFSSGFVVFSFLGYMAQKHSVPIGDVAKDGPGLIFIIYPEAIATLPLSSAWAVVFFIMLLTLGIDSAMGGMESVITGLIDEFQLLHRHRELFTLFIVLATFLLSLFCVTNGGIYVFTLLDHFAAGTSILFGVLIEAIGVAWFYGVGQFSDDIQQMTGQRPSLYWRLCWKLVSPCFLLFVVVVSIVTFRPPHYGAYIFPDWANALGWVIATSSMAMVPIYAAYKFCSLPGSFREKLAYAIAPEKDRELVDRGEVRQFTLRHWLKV
Chain of Sodium-dependent noradrenaline transporter (P23975 whole entry): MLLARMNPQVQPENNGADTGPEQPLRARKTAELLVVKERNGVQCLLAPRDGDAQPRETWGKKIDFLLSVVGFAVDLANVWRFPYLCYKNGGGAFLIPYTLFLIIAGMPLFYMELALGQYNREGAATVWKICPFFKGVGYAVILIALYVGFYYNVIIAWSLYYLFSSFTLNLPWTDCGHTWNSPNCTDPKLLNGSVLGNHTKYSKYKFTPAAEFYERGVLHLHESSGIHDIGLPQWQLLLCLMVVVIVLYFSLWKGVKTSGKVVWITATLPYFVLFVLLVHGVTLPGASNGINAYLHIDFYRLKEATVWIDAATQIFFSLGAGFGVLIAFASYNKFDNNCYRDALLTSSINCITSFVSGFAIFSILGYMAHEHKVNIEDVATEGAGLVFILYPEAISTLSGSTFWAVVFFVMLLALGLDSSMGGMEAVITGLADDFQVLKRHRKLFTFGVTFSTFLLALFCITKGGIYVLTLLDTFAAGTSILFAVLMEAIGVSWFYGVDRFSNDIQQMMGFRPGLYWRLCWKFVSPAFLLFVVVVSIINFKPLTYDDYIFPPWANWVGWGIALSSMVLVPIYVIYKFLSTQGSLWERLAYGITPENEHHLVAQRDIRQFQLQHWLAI

Take `CC(NC(C)(C)C)C(=O)c1ccc(Br)cc1` (stereo not given): the IC50 in [1] worked out at 689 nM; in assay [2] it was 2540 nM; in [3], 4510 nM. For the same compound, the outcome in [4], in assay [5], in [6] and in assay [7] was inactive. Also, the AD50 turned out to be 0.15 mg/kg in assay [8], 23.5 mg/kg in [9] and 29 mg/kg in [11]. The AD50 entry in [10] was “inactive”.

On to `CC(NC(C)(C)C)C(=O)c1ccc(Cl)c(Cl)c1` (stereo not given), for which the IC50 in assay [1] worked out at 463 nM; in assay [2], 1670 nM; in assay [3], 8800 nM. In addition, the outcome in assay [4], in assay [5], in assay [6] and in [7] was inactive. For the same compound, the AD50 in [8] was found to be 0.28 mg/kg. The AD50 result in [9], in [10] and in assay [11] was “inactive” each time.

For the compound `CCC(NC(C)(C)C)C(=O)c1ccc(Cl)c(Cl)c1` (stereo not given), the results for the IC50 in [1], in [2] and in assay [3] were 118 nM, 389 nM and 1090 nM, respectively. Also, the result in assay [4], in assay [5], in [6] and in [7] was inactive. Moreover, the AD50 in assay [8] stood at 0.05 mg/kg. The AD50 entry in [9], in assay [10] and in assay [11] was “inactive” each time.

Consider `COc1cccc(C(=O)C(C)NC2CCCC2)c1` (stereo not given), for which the IC50 in assay [1] amounted to 2270 nM; in assay [2] it was 8200 nM; in assay [3], 6900 nM. Further, the result in assay [4], in assay [5], in assay [6] and in [7] was inactive. For the same compound, the AD50 result in assay [8], in assay [9], in assay [10] and in [11] was “inactive” in each case.

On to `CCCC(NC(C)(C)C)C(=O)c1cccc(Cl)c1` (stereo not given), for which the IC50 in [1] was 56 nM; in [2] it was 370 nM. Besides, the outcome in assay [4], in [5], in [6] and in assay [7] was inactive. In assay [8], the AD50 came to 10 mg/kg. The AD50 result in assay [9], in assay [10] and in assay [11] was “inactive” each time.

As to `CC(NC1CCCC1)C(=O)c1cccc(F)c1` (stereo not given), the IC50 in assay [1] turned out to be 693 nM; in [2], 2850 nM. Moreover, the result in [4], in assay [5], in assay [6] and in assay [7] was inactive. Further, the AD50 entry in [8], in [9], in [10] and in [11] was “inactive” in each case.

Consider `Cc1cccc(C(=O)C(C)NC2CCCC2)c1` (stereo not given), for which the IC50 in assay [1] is 842 nM; in assay [2] it was 8700 nM. Also, the result in assay [4], in assay [5], in [6] and in assay [7] was inactive. The AD50 result in assay [8], in [9], in assay [10] and in assay [11] was “inactive” throughout.

Regarding `CC(NC(C)(C)C)C(=O)c1ccc(Cl)cc1` (stereo not given), the figures for the IC50 in [1], in [2] and in assay [3] were 1090 nM, 2070 nM and 9800 nM, respectively. Also, the outcome in [4], in assay [5], in assay [6] and in assay [7] was inactive. The AD50 came to 0.43 mg/kg in [8], 31 mg/kg in assay [10] and 32 mg/kg in [11]. Also, in assay [9], the AD50 result is “inactive”.

`CC(NC(C)(C)C)C(=O)c1cccc(F)c1` (stereo not given): the IC50 is 2320 nM in assay [1] and 6500 nM in [2]. Besides, the result in assay [4], in [5], in [6] and in assay [7] was inactive. The AD50 entry in assay [8], in [9], in [10] and in [11] was “inactive” throughout.

In the case of `Cc1ccc(C(=O)C(C)NC(C)(C)C)cc1Cl` (stereo not given), the IC50 worked out at 410 nM in assay [1] and 2040 nM in assay [2]. Also, the result in [4], in assay [5], in assay [6] and in assay [7] was inactive. Moreover, the AD50 in [8] amounted to 0.2 mg/kg; in [9], 7.2 mg/kg; in assay [10], 11 mg/kg; in assay [11], 10 mg/kg.

Consider `CCCC(NC(C)(C)C)C(=O)c1ccc(Cl)c(Cl)c1` (stereo not given), for which the values for the IC50 in assay [1] and in assay [3] were 31 nM and 2300 nM, respectively. For the same compound, the result in assay [4], in [5], in assay [6] and in assay [7] was inactive. For the same compound, the AD50 in assay [8] amounted to 0.13 mg/kg; in assay [9], 15 mg/kg; in [11], 17.5 mg/kg. Also, the AD50 result in assay [10] was “inactive”.

On to `CC(NC(C)(C)C)C(=O)c1ccc(F)c(F)c1` (stereo not given), for which the IC50 in assay [1] was 7980 nM; in assay [2], 6480 nM. Besides, the outcome in assay [4], in [5], in assay [6] and in assay [7] was inactive. Also, in assay [8], the AD50 came out at 0.05 mg/kg. Besides, the AD50 result in assay [9], in assay [10] and in assay [11] was “inactive” each time.

Turning to `CC(C(=O)c1cccc(Cl)c1)N1CCCCC1` (stereo not given), the IC50 in [1] turned out to be 852 nM; in assay [2], 2520 nM. For the same compound, the result in [4], in [5], in [6] and in assay [7] was inactive. Further, in [8], the AD50 stood at 0.05 mg/kg. Besides, the AD50 entry in assay [9], in [10] and in assay [11] was “inactive” throughout.

Consider `CC(NC1CCCC1)C(=O)c1cccc(Br)c1` (stereo not given), for which the IC50 in [1] amounted to 845 nM; in [2], 2530 nM. For the same compound, the outcome in assay [4], in assay [5], in assay [6] and in [7] was inactive. For the same compound, the AD50 entry in [8], in assay [9], in assay [10] and in assay [11] was “inactive” in each case.
